Assay results as given in the NIST ThermoML archive (doi:10.1021/je8004479).
± gives the expanded uncertainty stated by the source.

How the values were obtained:
[1] = xn = mol fraction of the nth substance listed; settings: 294 K; for mass density / viscosity: 101 kPa, Liquid; for mass density: Vibrating tube method
[2] = refractive index (Na D-line) (dimensionless); xn = mol fraction of the nth substance listed; settings: 294 K, 101 kPa, Liquid, Standard Abbe refractometry

CCO [ethanol] + OCC(O)CO
x1 = 1
Settings | mass density [kg/m3] | refractive index | surface tension liquid-gas [mN/m] | viscosity [mPa·s]
[1] | 789.91 ± 0.22 | – | 22.2 ± 1.3 | 1.214
[2] | – | 1.3618 ± 0.0032 | – | –

OCC(O)CO [glycerol] + CCO
Settings | mass density, [1] [kg/m3] | refractive index, [2] | surface tension liquid-gas, [1] [mN/m] | viscosity, [1] [mPa·s]
x2 = 0 | 1261.51 ± 0.34 | 1.474 ± 0.0035 | 63.1 ± 3.2 | 1390 ± 350
x2 = 0.084 | 1233.48 ± 0.75 | 1.468 ± 0.0035 | 52 ± 2.7 | 800.5 ± 160
x2 = 0.1222 | 1220.3 ± 0.77 | 1.466 ± 0.0035 | 48.8 ± 2.6 | 627.9 ± 120
x2 = 0.1761 | 1201.19 ± 0.78 | 1.4619 ± 0.0035 | 43 ± 2.3 | 450 ± 73
x2 = 0.2037 | 1191.35 ± 0.79 | 1.4592 ± 0.0034 | 41.7 ± 2.2 | 385.1 ± 58
x2 = 0.2385 | 1178.37 ± 0.81 | 1.4562 ± 0.0034 | 39.4 ± 2.1 | 270 ± 34
x2 = 0.2789 | 1162.98 ± 0.84 | 1.4528 ± 0.0034 | 35.8 ± 2 | 220.5 ± 24
x2 = 0.351 | 1134.3 ± 0.86 | 1.447 ± 0.0034 | 33.2 ± 1.9 | 141.4 ± 11
x2 = 0.4138 | 1108.32 ± 0.9 | 1.4392 ± 0.0034 | 29.7 ± 1.7 | 80.71 ± 4.3
x2 = 0.4841 | 1077.53 ± 0.94 | 1.4326 ± 0.0034 | 28.5 ± 1.6 | 54.01 ± 2.7
x2 = 0.5497 | 1047.03 ± 0.98 | 1.4253 ± 0.0034 | 27.1 ± 1.6 | 31.52 ± 2.2
x2 = 0.6046 | 1020.27 ± 1 | 1.4179 ± 0.0034 | 25.1 ± 1.5 | 20.31 ± 2.1
x2 = 0.6526 | 995.96 ± 1.1 | 1.4131 ± 0.0033 | 24.3 ± 1.4 | 16.7 ± 2.1
x2 = 0.7451 | 946.41 ± 1.1 | 1.4016 ± 0.0033 | 23.5 ± 1.4 | 9.096 ± 2
x2 = 0.7984 | 916.05 ± 1.2 | 1.3934 ± 0.0033 | 23.5 ± 1.4 | 5.217 ± 2
x2 = 0.8336 | 895.63 ± 1.2 | 1.3885 ± 0.0033 | 23 ± 1.4 | 4.1 ± 2
x2 = 0.8777 | 868.79 ± 1.2 | 1.3815 ± 0.0033 | 22.5 ± 1.4 | 3.037
x2 = 0.9353 | 832.89 ± 1.3 | 1.3727 ± 0.0032 | 22.4 ± 1.4 | 1.898
x2 = 0.9596 | 816.85 ± 1.4 | 1.3681 ± 0.0032 | 22.3 ± 1.3 | 1.49
